Earlier results on one molecule are cited in patent EP2654723B1, “Solid pharmaceutical dosage forms comprising tadalafil and methods of preparation thereof” (Zaklady Farmaceutyczne Polpharma SA, priority 2010, dated 2012).

The conditions of series [1]: at 37°C.

In the case of `CN1CC(=O)N2[C@H](c3ccc4c(c3)OCO4)c3[nH]c4ccccc4c3C[C@@H]2C1=O` [Tadalafil, (6R-trans)-6-(1,3-benzodioxol-5-yl)-2,3,6,7,12,12a-hexahydro-2-methyl-pyrazino [1', 2':1,6] pyrido[3,4-b]indole-1,4-dione], the permeability result is given as “low permeability”. In addition, for the setting “because of low solubility and low permeability”, the BCS class entry was “BCS class IV”. Further, in series [1], the experimental water solubility result is recorded as “about 2 µg/mL”.
